Experimental data published in patent publication US10556879B2, “Retinoid compound, preparation method therefor, intermediates thereof and application thereof” (SHANGHAI INSTITUTE OF ORGANIC CHEMISTRY, CHINESE ACADEMY OF …, priority 2016, dated 2020).
“Also recorded” adds a separate entry of the source. Where two headings read alike, the source gives them in different places.

Assays:
[1] = tested on: subcutaneous implantation tumor of B16-F1 melanoma; test: Subcutaneous implantation model of B16-F1 melanoma in immunocompetent mice; assay type: in vivo, mice (C57BL/6)
Method: A subcutaneous implantation model of B16-F1 melanoma in immunocompetent mice (C57BL/6, female, 6-8 weeks) was established to study the inhibitory activity of compound WYC-103 on the tumor in situ. Firstly, B16-F1 cells were incubated within 3D fibrin gel (90-Pa in gel stiffness) that was immersed in culture medium for 5 days, and the desired tumor-repopulating cells were screened. Subsequently, the culture medium was respectively treated with collagenase and neutral protease II, and the tumor-repopulating cells of B16-F1 melanoma were released, then the obtained repopulating cells were transferred to a freshly prepared medium to be re-suspended and maintained at single-cell state.
Six immunocompetent mice were randomly divided into two groups which were respectively the treatment group and the DMSO negative control group. Mice were subcutaneously injected with 30,000 tumor-repopulating cells of melanoma to establish a subcutaneous implantation model of melanoma. Subsequently, Mice were administered via tail vein injection based on the body weight and the blood volume of the mice. From day 0, mice in the treatment group were administrated with WYC-103 once every 2 days at a blood concentration of 10 μM and fed normally, observing the survival of the mice. […] According to the statistical analysis, the tumor volume in the treatment group was only 50% of the control group (FIG. 12).
This experiment was repeated in order to further confirm the inhibitory activity of WYC-103 on subcutaneous implantation tumor of B16-F1 melanoma. In the present experiment, 18 immunocompetent mice (C57BL/6, female, 6-8 weeks) were randomly divided into three groups which were respectively the treatment group, the positive control group (BMS-453 was used as the positive drug) and the DMSO negative control group. Subsequently, Mice were administered via tail vein injection based on the body weight and the blood volume of the mice. From day 0, mice in the treatment group were administrated with WYC-103 once every 2 days at a blood concentration of 10 μM; mice in the positive control group were administered with BMS-453 (WYC-114) as the positive drug in the same route of administration; mice in the negative control group was administered with 0.1% DMSO in a same route of administration.

[2] = tested on: tumor-repopulating cells of B16-F1 melanoma; test: Inhibitory activity on proliferation of tumor-repopulating cells (TRCs) of B16-F1 melanoma in 3D fibrin gel; assay type: cell-based; conditions: Mus musculus; for IC50: B16-F1, dose-response curve, colony tumor volume, read-out: IC50 of inhibition on TRCs of B16-F1 melanoma/μM
Method: B16-F1 Melanoma cells were incubated with 3D fibrin gel medium (90-Pa) for 5 days, and the desired tumor-repopulating cells of melanoma were screened (Nat. Mater. 2012, 11, 734). Subsequently, the culture medium was respectively treated with collagenase and neutral protease II, and the tumor-repopulating cells of B16-F1 melanoma were released, then the obtained repopulating cells were transferred to a freshly prepared medium to be resuspended and maintained at single-cell state. The tumor-repopulating cells of B16-F1 melanoma were inoculated in 3D fibrin gel medium (90-Pa) for 5 days, with 0.1% DMSO as the negative control group, Tazarotene and Bexarotene as the positive control drugs respectively, […] for 5 days. The colony tumor size was measured and calculated, and the inhibition rate of each drug on the tumor-repopulating cells of B16-F1 melanoma was calculated. The results of inhibitory activity of the compound of the present invention on the proliferation of tumor-repopulating cells of B16-F1 melanoma were shown in Table 2 below.

B16-F1 melanoma cells = test: In vitro effect on B16-F1 melanoma cells (proliferation, apoptosis) in the toxicity study; assay type: cell-based; conditions: 10 μM
Method: (§1) The 3T3 mouse embryonic fibroblast cells and B16-F1 melanoma cells were used as the model to study in vitro toxicity of WYC-209 and WYC-331 respectively. The effect of compound WYC-209 and WYC-331 on the proliferation of 3T3 mouse embryonic fibroblast cells and B16-F1 melanoma cells were studied at a concentration of 10 μM.

[3] = tested on: 3T3 mouse embryonic fibroblast cells; test: In vitro toxicity on normal cells (proliferation, apoptosis); assay type: cell-based; conditions: 10 μM
Method: as §1

[4] = tested on: tumor-repopulating cells of A2780 ovarian cancer; test: Inhibition of proliferation of tumor-repopulating cells, colony tumor volume in 3D fibrin gel; assay type: cell-based, human; conditions: A2780 TRCs, 10 μM
Method: (§2) Therefore, we further studied the inhibitory activity of this compound against tumor-repopulating cells of six other kinds of human tumor, including A549 lung cancer cell, MCF-7 breast cancer cell, MDA-MB-435S melanoma cell, A2780 ovarian cancer cell, Hs-746T gastric cancer cell, MDA-MB-231 breast cancer cell.
(§3) The above cancer cells were incubated with 3D fibrin gel medium (90-Pa) for 5 days, and the desired tumor-repopulating cells were screened. Subsequently, the culture medium was respectively treated with collagenase and neutral protease II, and the tumor-repopulating cells of B16-F1 melanoma were released, then the obtained repopulating cells were transferred to a freshly prepared medium to be resuspended and maintained at single-cell state. The tumor-repopulating cells of individual tumor were inoculated in 3D fibrin gel medium (90-Pa) for 5 days, with 0.1% DMSO as the negative control group (represented by DMSO group in FIGS. 3-8), the drug-free group as vehicle control group (represented by None group in FIGS. 3-8), and the study was performed by beginning administrating on the day 0 and the 3rd day respectively, and the colony tumor volume was measured and calculated.
as §3, with “The above human tumor cells were” for “The above cancer cells were”, “cells of B16-F1 melanoma were inoculated” for “cells of individual tumor were inoculated”, “group in FIG. 9), the drug-free” for “group in FIGS. 3-8), the drug-free”, “measured and calculated, beginning administrating from the 3rd day at a concentration of 0.1 μM, 1.0 μM, and 10 μM respectively, the colony tumor volume was measured and calculated.” for “measured and calculated.”

[5] = tested on: tumor-repopulating cells of MDA-MB-231 breast cancer; test: as above; assay type: cell-based, human; conditions: MDA-MB-231 TRCs
Method: as §2, §3
as §3, with “The above human tumor cells were” for “The above cancer cells were”, “cells of B16-F1 melanoma were inoculated” for “cells of individual tumor were inoculated”, “group in FIG. 9), the drug-free” for “group in FIGS. 3-8), the drug-free”, “measured and calculated, beginning administrating from the 3rd day at a concentration of 0.1 μM, 1.0 μM, and 10 μM respectively, the colony tumor volume was measured and calculated.” for “measured and calculated.”

[6] = B16-F1, 120 h, 10 μM, incubated 5 days, colony tumor size, read-out: Inhibition rate on TRCs of B16-F1 melanoma at a concentration of 10 μM (%)
[7] = B16-F1, 10 μM (Table 3), read-out: Inhibition rate on TRCs of B16-F1 melanoma at a concentration of 10 μM/%

SMILES | inhibition at 10 µM [2, 6] | further results
CC1(C)CC=C(c2ccccc2)c2cc(/C=C/c3ccc(C(=O)O)cc3)ccc21 [BMS-453, reference compound] |  | body weight of the mice ([1]; mouse, in vivo): significantly reduced; dissection of peritoneal/abdominal cavity ([1]; mouse, in vivo): a large number of abnormal foamy structure appeared in the peritoneal cavity; toxic side effects ([1]; mouse, in vivo): a greater toxic side effect; mice died ([1]; repeated experiment, on the 20th day): all the mice in the positive control group died
CCOC(=O)c1cnc(C#Cc2ccc3c(c2)C(C)(C)CCC3(C)C)nc1 [WYC-331, ethyl 2-((5,5,8,8-tetramethyl-5,6,7,8-tetrahydronaphth-2-yl)ethynyl)pyrimidin-5-carboxylate] | 96% | IC50 [2]: 0.017 µM; inhibition at 10 µM [2, 7]: 96%; effect on proliferation of B16-F1 melanoma cells (B16-F1 melanoma cells): strongly inhibited the proliferation; induction of apoptosis of B16-F1 melanoma cells (B16-F1 melanoma cells): did not exhibit significant apoptosis-inducing effect; effect on proliferation of 3T3 mouse embryonic fibroblast cells [3]: no effect on the growth of 3T3 cell clones; induction of apoptosis of 3T3 mouse embryonic fibroblast cells [3]: did not exhibit significant apoptosis-inducing effect; also recorded: could not induce apoptosis; volume of colony tumor relative to None group [4]: 10-15%; growth trend of colony tumor [5]: reverse the growth trend of colony tumor; volume of colony tumor relative to None group ([5]; 10 μM): 10-15%
CCOC(=O)c1ccc(C#Cc2ccc3c(c2)C(C)(C)CCS3)cc1N [WYC-216, ethyl 2-amino-4-((4,4-dimethylthiochroman-6-yl)ethynyl)benzoate] | 84% | 
CC1(C)CCC(C)(C)c2cc(C#Cc3ccc(C(=O)O)c(N)c3)ccc21 [WYC-330, 2-amino-4-((5,5,8,8-tetramethyl-5,6,7,8-tetrahydronaphth-2-yl)ethynyl)benzoic Acid] | 79% | 
COC(=O)c1ncc(C#Cc2ccc3c(c2)C(C)(C)CCC3(C)C)cn1 [WYC-338, methyl 5-((5,5,8,8-tetramethyl-5,6,7,8-tetrahydronaphth-2-yl)ethynyl)pyrimidin-2-carboxylate] | 69% | 
CC1(C)CCSc2ccc(C#Cc3ccc(C(=O)O)c(F)c3F)cc21 [WYC-314, 2,3-difluoro-4((4,4-dimethylthiochroman-6-yl)ethynyl)benzoic Acid] | 70.1% | 
CCOC(=O)c1ccc(C#Cc2ccc3c(c2)C(c2ccccc2)=CCC3(C)C)cc1O [WYC-302, ethyl 4-((5,5-dimethyl-8-phenyl-5,6-dihydronaphth-2-yl)ethynyl)-2-hydroxybenzoate] | 21.9% | 
COC(=O)c1ccc(C#Cc2ccc3c(c2)C(C)(C)CC[S+]3[O-])cc1N (stereo not shown) [WYC-215, methyl 2-amino-4-((4,4-dimethyl-1-oxothiochroman-6-yl)ethynyl)benzoate] | 80.2% | 
CCOC(=O)c1ccc(C#Cc2ccc3c(c2)C(C)(C)CC[S+]3[O-])cc1Cl (stereo not shown) [WYC-326, ethyl 2-chloro-4-((4,4-dimethyl-1-oxothiochroman-6-yl)ethynyl)benzoate] | 73.4% | 
CC(=O)Nc1cc(C#Cc2ccc3c(c2)C(C)(C)CCC3(C)C)ccc1C(=O)O [WYC-336, 2-acetyl amino-4-((5,5,8,8-tetramethyl-5,6,7,8-tetrahydronaphth-2-yl)ethynyl)benzoic Acid] | 86.7% | 
CCOC(=O)c1ccc(C#Cc2ccc3c(c2)C(C)(C)CC[S+]3[O-])cc1N (stereo not shown) [WYC-218, ethyl 2-amino-4-((4,4-dimethyl-1-oxothiochroman-6-yl)ethynyl)benzoate] | 90.4% | 
CC1(C)CC=C(c2ccccc2)c2cc(C#Cc3ccc(C(=O)O)c(F)c3)ccc21 [WYC-306, 4-((5,5-dimethyl-8-phenyl-5,6-dihydronaphth-2-yl)ethynyl)-2-fluorobenzic Acid] | 15.2% | 
CC1(C)CC[S+]([O-])c2ccc(C#Cc3ccc(C(=O)O)c(N)c3)cc21 (stereo not shown) [WYC-214, 2-amino-4-((4,4-dimethyl-1-oxothiochroman-6-yl)ethynyl)benzoic Acid] | 51.6% | 
CCOC(=O)c1ccc(C#Cc2ccc3c(c2)C(C)(C)CC[S+]3[O-])c([N+](=O)[O-])c1 (stereo not shown) [WYC-311, ethyl 3-nitro-4-((4,4-dimethyl-1-oxothiochroman-6-yl)ethynyl)benzoate] | 80.2% | 
CCOC(=O)c1ccc(C#Cc2ccc3c(c2)C(C)(C)CCS3)nc1 [Tazarotene, reference compound] | 67.6% | 
CC(=O)Nc1cc(C#Cc2ccc3c(c2)C(C)(C)CCS3)ccc1C(=O)O [WYC-213, 2-acetamido-4-((4,4-dimethylthiochroman-6-yl)ethynyl)benzoic Acid] | 71.1% | 
CC1(C)CCC(C)(C)c2cc(C#Cc3cnc(C#N)nc3)ccc21 [WYC-329, 2-cyano-5-((5,5,8,8-tetramethyl-5,6,7,8-tetrahydronaphth-2-yl)ethynyl)pyrimidine] | 94.5% | IC50 [2]: 0.5 µM; inhibition at 10 µM [2, 7]: 94.5%
